Test results reported in patent US10273279B2, “Protease activated receptor-1 (PAR1) derived cytoprotective polypeptides and related methods” (THE SCRIPPS RESEARCH INSTITUTE, priority 2011, dated 2019).
Where no end group is shown, it is not given here.

Tests used:
[1] = test system: glycogen synthase kinase 3β (GSK3β) phosphorylation at Ser9; experiment: GSK3β Ser9 phosphorylation in endothelial cells; type: cell-based, human
Experimental: To further confirm activation of Akt by the TR47-66 peptide, Akt-mediated inactivation of glycogen synthase kinase 3β (GSK3β) via phosphorylation at Ser9 was determined. GSK3β is a well-known downstream substrate for Akt.

[2] = test system: EA.hy.926 endothelial cells; experiment: Staurosporine-induced endothelial cell apoptosis (Apopercentage dye); type: cell-based, human; conditions: 4 hrs pretreatment; 50 μM NPND, 50 μM scr-NPND or 10 μM TFLL; staurosporine 10 μM
Experimental: Activated Protein C (APC) conveys anti-apoptotic activity to EA.hy.926 cells that requires functional PAR1 receptor and APC binding to the endothelial protein C receptor (EPCR). See, e.g., Mosnier at al., Biochem J. 2003; 373:65-70; and Mosnier at al., Blood. 2007; 109:3161-3172.
Methods: EA.hy.926 cells (ATCC: CRL-2922) were grown in 24 well plates in DMEM (Invitrogen #12430) supplemented with glutamax (Invitrogen #35050) and 10% FBS (Hyclone #35-011-CV) in a 37° C. cell incubator with a humidified atmosphere and 5% CO2 in air until confluency. Cells were treated for 4 hrs with vehicle control, 50 μM NPND, 50 μM scr-NPND or 10 μM TFLL after which staurosporine (10 μM) and the Apopercentage dye (Biocolor) were added according the manufacturer's instructions. After 1 hr cells were washed with 2×1 ml PBS and 110 μl of the dye release agent was added to the cells. Subsequently 100 μl aliquots were transferred to a black 96 well plate and fluorescence was measured (530 nm excitation/580 nm emission). Apoptosis was expressed as a percentage of cells treated with 10 mM H2O2 for which apoptosis was set at 100%.

[3] = test system: ERK1/2 phosphorylation at Thr202/204 in EA.hy.926 human endothelial cells; experiment: ERK1/2 phosphorylation in EA.hy.926 endothelial cells (in-cell Western); type: cell-based
Excerpt: (§1) Activated Protein C (APC) cleaves a synthetic PAR1 tail peptide at Arg^41 and Arg^46; furthermore, APC cleaves SEAP-PAR1 mutants with the mutations R41A or R41Q but not SEAP-PAR1 with both R41Q/R46Q mutations. […] It was thus hypothesized that a new PAR1 N-terminus beginning at residue Asn-47 promotes PAR1 signaling and APC cytoprotective activities. Since phosphorylation of signaling network components is useful for monitoring activation of signaling pathways, the effects of synthetic PAR1 peptides on Akt and ERK1/2 phosphorylation in EA.hy.926 human endothelial cells were studied. Cells were treated for 0, 5 or 30 min with peptides prior to cell fixation, permeabilization of cells and subsequent immunoblotting analysis (“in-cell Western blotting”). Relative phosphorylation of Akt at Ser^473 (pSer^473-Akt) or of ERK1/2 at Thr202/204 (pERK1/2) in endothelial cells was quantified using the LI-COR Odyssey infrared (IR) fluorescence imaging system which permits “in cell” Western blots. The Odyssey permits simultaneous quantification of different antibodies that yield either red or green signals.
(§2) Methods: EA.hy.926 cells (ATCC: CRL-2922) were grown in black clear bottom 96 well plates (Nunc) in DMEM (Invitrogen #12430) supplemented with glutamax (Invitrogen #35050) and 10% FBS (Hyclone #35-011-CV) in a 37° C. cell incubator with a humidified atmosphere and 5% CO2 in air until confluency. Cells were treated for 0, 5 or 30 min with PAR1 peptides TFLL (50 μM), NPND (250 μM) or scr-NPND (250 μM) or with vehicle in serum free media. Subsequently cells were fixed with methanol free 4% para-formaldehyde (Pierce), washed with phosphate buffered saline (PBS; Invitrogen) containing 1% triton X-100 and blocked with Odyssey blocking buffer (Licor). Cells were incubated with rabbit anti-pT202/Y204 ERK1/2 (1/1000; Cell signaling D13.14.4E) or rabbit anti-pSer^473 (1/100; cell signaling D9E) with Odyssey blocking buffer. After washing with PBS/0.1% Tween (1/800), IRDye 800CW-labelled secondary goat anti-rabbit antibodies (Licor) were added to the cells in Odyssey blocking buffer and 1/10,000 Draq5 (Biostatus) for cell normalization. After final washing with PBS/0.1% Tween IR, the fluorescence of bound antibodies was determined using the Odyssey (Licor). Background fluorescence was determined by omitting the primary antibody and subtracting values for controls from all other observed values.

[4] = test system: Akt phosphorylation at Ser473 in EA.hy.926 human endothelial cells; experiment: Akt Ser473 phosphorylation in EA.hy.926 endothelial cells (in-cell Western); type: cell-based
Excerpt: as §1, §2

SEAP-PAR1 = SEAP-PAR1 cleavage reporter on transfected HEK-293 cells (SEAP release); type: cell-based, human; conditions: independent of EPCR
Excerpt: To facilitate analysis of APC-mediated PAR-1 activation, we created a full-length PAR-1 construct linked at the N-terminus to an alkaline phosphatase reporter group (SEAP). Selection of stable cell lines expressing both endothelial protein C receptor (EPCR) (wt or E86A) and SEAP-PAR1 allowed for a reliable and reproducible analysis of EPCR-dependent PAR-1 activation by APC. Mass-spec analysis of cleavage fragments generated by APC of a synthetic PAR-1 N-terminal tail peptide (TR33-62) identified both Arg^41 and Arg^46 as potential cleavage sites for APC proteolysis, as noted above. […] R41Q-SEAP-PAR1 was cleaved by APC in the presence of EPCR. This surprising result was also obtained for R41A-SEAP PAR1.
2009; 113:5970-5978. SEAP-PAR1, either in the presence or absence of wt-EPCR, were transfected into HEK-293 cells to obtain stable cells expressing SEAP-PAR1 or wt-EPCR/SEAP-PAR1. Mutations in SEAP-PAR1 were introduced using the Quickchange method (Agilent). Cells were grown in 96-wells plates to confluency in Dulbeco's modified Eagle media (DMEM): Ham's F-12 (Invitrogen) supplemented with penicillin-streptomycin-glutamine (PSG) (Gibco) and 10% fetal bovine serum (Omega) in a humidified atmosphere at 37° C. and 5% CO2 Cells were washed with Hank's balanced salt solution (HBSS; Invitrogen) supplemented with 1.3 mM CaCl2, 0.6 mM MgCl2 and 0.1% endotoxin free BSA (Calbiochem) and incubated with APC. After 60 min, SEAP release was determined using 1-step PNPP (Pierce). Values were corrected for background activity derived from the same cells incubated in the absence of APC and expressed as a percentage of total SEAP available on the cell membrane.

[5] = 0, 5 or 30 min, TFLL 50 μM, NPND 250 μM, scr-NPND 250 μM

For `CC(C)c1ccc(Cn2ccc3c4c(N)nc(NC5CC5)nc4ccc32)cc1` [SCH79797], the “effect on TR47-66-induced Ser9-GSK3β phosphorylation” value ([1]; PAR1 antagonist added to TR47-66) was “inhibited”.
For “TFLLRNPNDK (not fully specified) [reference compound]”, the “inhibition of staurosporine-induced endothelial cell apoptosis” value [2] was “did not convey detectable anti-apoptotic effects”, the “phosphorylation of GSK3β at Ser9” value ([1]; Example 7) was “did not result in Ser9-GSK3β phosphorylation” and the “ERK1/2 phosphorylation (pERK1/2)” value [3, 5] was “quickly but transiently stimulated”. For the same compound, the “activation of ERK1/2” value ([3]; Example 7) was “did so”, the “pSer473-Akt (Akt phosphorylation)” value [4, 5] was “essentially no effect” and the “Ser473-Akt phosphorylation (activation of Akt)” value ([4]; Example 7, under the employed experimental conditions) was “neither thrombin nor TRAP induced”.
With elastase [reference compound] the “cleavage of all PAR1 constructs on cells” value (SEAP-PAR1) was “cleaved all PAR1 constructs on cells with similar efficacy”.
